Data as given in US9877962B2, “Piperazinyl derivatives for the treatment of cancer” (priority 2011, dated 2018).
In brackets after ≈: the same amount, converted by molar mass. Read-outs that look alike come from different tables or passages of the source. One block for each compound: values may come before it.

Columns and labels:
[1] = system: HL-60; test: Cytotoxicity test (ViaLight Plus cell proliferation) on HL-60; type: cell-based, human; details: 72 hours' incubation, cell viability vs 0.5% DMSO control; for IC50: HL-60, 72 h, read-out: EC50 HL-60
Description: (§1) The effects of the compounds of the invention on the proliferation of cancer cells were studied on different human cancer cell lines of different tissue origin (MCF-7: breast cancer, MCF-7/adr adriamycin-resistant breast cancer, HL-60: acute promyelocytic leukaemia, HL-60/R10: doxorubicin-resistant acute promyelocytic leukaemia, HT29: colon adenocarcinoma, Mia Paca2: pancreatic tumour, Panc-1: pancreatic exocrine tumour, SK-OV-3: cisplatin- and adriamycin resistant ovarian cancer). The cancer cells used for this study were incubated at 37° C. in the presence of one of the compounds of the invention added to the culture medium at different concentrations.
(§2) The cancer cell lines were obtained from ATCC (American Type Culture Collection) for MCF-7, from Hôpital de la Pitié Salpetrière for MCF-7/adr and from Oncodesign (Dijon, France) for HL-60, HL-60/R10, HT29, MiaPaCa2, Panc-1 and SK-OV-3. They were cultured in RPMI 1640 medium containing 2 mM L-Glutamine supplemented with 10% foetal calf serum (Lonza; Verviers, Belgium). All the cell lines were held in culture at 37° C. in a humid atmosphere containing 5% CO2. Cell proliferation was assessed using the ViaLight® Plus Assay Kit (Lonza; Verviers, Belgium) following the manufacturer's instructions. The cells were seeded in 96-well culture plates compatible with luminescence read-off (white plates with transparent bottom) in a proportion of 5 000 to 10 000 cells per well in 100 μl of culture medium. After a pre-incubation time of 24 hours at 37° C., the compounds of the invention dissolved in dimethylsulfoxide (DMSO) were individually added to each well in a proportion of 0.5 μl per well. After 72 hours' incubation at 37° C. in a humid atmosphere containing 5% CO2, 50 μl of lysis buffer were added to each well and 15 minutes later 100 μl of ATP measuring agent were added. The plates were read under a luminometer to evaluate cell viability. The data obtained was processed by computer to obtain the EC50 value i.e. the concentration value of each of the compounds which induces 50% cell viability compared with a control value (0.5% DMSO alone).

[2] = system: HL-60/R10; test: Cytotoxicity test (ViaLight Plus cell proliferation) on HL-60/R10; type: cell-based, human; details: doxorubicin-resistant line, 72 hours' incubation, cell viability vs 0.5% DMSO control, read-out: EC50 HL60/R10; for IC50: HL-60, 72 h
Description: as §1, §2

[3] = system: MCF-7; test: Cytotoxicity test (ViaLight Plus cell proliferation) on MCF-7; type: cell-based, human; details: 72 hours' incubation, cell viability vs 0.5% DMSO control; for IC50: Homo sapiens, MCF7, 72 h, read-out: EC50 MCF-7
Description: as §1, §2

[4] = system: MCF-7/adr; test: Cytotoxicity test (ViaLight Plus cell proliferation) on MCF-7/adr; type: cell-based, human; details: adriamycin-resistant line, 72 hours' incubation, cell viability vs 0.5% DMSO control; for IC50: Homo sapiens, NCI/ADR-RES, 72 h, read-out: EC50 MCF-7/adr
Description: as §1, §2

[5] = system: HT29; test: Cytotoxicity test (ViaLight Plus cell proliferation) on HT29; type: cell-based, human; details: 72 hours' incubation, cell viability; for IC50: Homo sapiens, HT-29, read-out: EC50 HT29
Description: as §1, §2

[6] = system: Mia PaCa2; test: Cytotoxicity test (ViaLight Plus cell proliferation) on Mia PaCa2; type: cell-based, human; details: 72 hours' incubation, cell viability; for IC50: Homo sapiens, MIA PaCa-2, read-out: EC50 Mia PaCa2
Description: as §1, §2

[7] = system: Panc-1; test: Cytotoxicity test (ViaLight Plus cell proliferation) on Panc-1; type: cell-based, human; details: 72 hours' incubation, cell viability; for IC50: Homo sapiens, PANC-1, read-out: EC50 Panc-1
Description: as §1, §2

[8] = system: SK-OV-3; test: Cytotoxicity test (ViaLight Plus cell proliferation) on SK-OV-3; type: cell-based, human; details: cisplatin- and adriamycin resistant line, 72 hours' incubation, cell viability; for IC50: Homo sapiens, SK-OV-3, read-out: EC50 SK-OV-3
Description: as §1, §2

[9] = Pharmacokinetic parameters in mice; type: in vivo, balb/c mice; details: for AUC(0-inf) / AUC(0-t) / Cmax / half-life: mouse, balb/c mice, intravenous route, 10 mg/kg, plasma; for half-life: read-out: t½ (converted)
Experimental: The pharmacokinetic behaviour of compounds is a pre-requisite for reasonable use thereof in in vivo experimentation. The compounds were given in DMSO solution via intravenous route (IV) or oral route (PO) to balb/c mice. Blood samples were taken at times ranging from 5 minutes to 6 hours, the plasmas were collected and the concentration of the compounds in each sample was assayed by LC/MS/MS. The data obtained allowed the plotting of time-concentration curves and determination of fundamental parameters such as plasma half-life of the compound (T½), area under curve at a given time (AUCt) and the maximum concentration obtained (Cmax).

[10] = Determination of aqueous solubility; type: physicochemical; details: aqueous medium, aqueous buffer, thermodynamic from solid, pH 7.4, agitation 24 h, 20° C., HPLC
Experimental: The aqueous solubility of each compound was measured at pH 7.4. It was measured using HPLC on the supernatants obtained by centrifugation after saturation of the media with excess compound after an agitation time of 24 h and at a temperature of 20° C. The preparation and treatment of the samples was robotized.

bioavailability in a mouse ([9]; IV 10 mg/kg or PO 30 mg/kg, FIG. 1): good bioavailability
SMILES: Cc1cc(Oc2ccccc2)ccc1N(C(=O)CCl)C(C(=O)N1CCN[C@@H](C)C1)c1cccs1 (single isomer, unassigned) [I-43 dia2]
IC50 ([1]; Homo sapiens): 1890 nM
IC50 ([2]; Homo sapiens): 20 nM
IC50 [3]: 1420 nM
IC50 [4]: 126 nM
IC50 [5]: 10 nM
IC50 [6]: 18 nM
IC50 [7]: 7 nM
IC50 [8]: 9 nM

AUC(0-inf) [9]: 3840 ng·h/mL
AUC(0-t) [9]: 3290 ng·h/mL
Cmax [9]: 3800 ng/mL
half-life [9]: 2.64 h
SMILES: Cc1cc(Oc2ccccc2)ccc1N(C(=O)CCl)C(C(=O)N1CC(C)NC(C)C1)c1cccs1.Cl (centres unmarked)

solubility at 24 h [10]: 68 µg/mL
SMILES: Cl.O=C(C(c1cccs1)N(C(=O)CCl)c1ccc(Oc2ccccc2)cc1)N1CCNCC1 (centres unmarked) [reference compound]
IC50 ([1]; Homo sapiens): 579 nM
IC50 ([2]; Homo sapiens): 21 nM

solubility at 24 h [10]: 203 µg/mL
SMILES: C[C@H]1CN(C(=O)C(c2cccs2)N(C(=O)CCl)c2ccc(Oc3ccccc3)cc2)CCN1.Cl (some centres unmarked) [Example I-58]
IC50 ([1]; Homo sapiens): 1060 nM
EC50 ([1]; Homo sapiens, HL-60): 1060 nM
IC50 ([2]; Homo sapiens): 11 nM
EC50 ([2]; Homo sapiens, HL-60): 11 nM
IC50 [3]: 870 nM
IC50 [4]: 88 nM

solubility at 24 h [10]: 105 µg/mL
SMILES: C[C@H]1CNCCN1C(=O)C(c1cccs1)N(C(=O)CCl)c1ccc(Oc2ccccc2)cc1.Cl (some centres unmarked) [reference compound]
IC50 ([1]; Homo sapiens): 662 nM
IC50 ([2]; Homo sapiens): 65 nM

SMILES: Cc1cc(Oc2ccccc2)ccc1N(C(=O)CCl)C(C(=O)N1CCN[C@@H](C(C)C)C1)c1cccs1 (single isomer, unassigned; dia2) [I-46 dia2]
EC50 [1]: 449 nM
EC50 [2]: 10 nM
EC50 [3]: 1180 nM
EC50 [4]: 58 nM
EC50 [5]: 6 nM
EC50 [6]: 10 nM
EC50 [7]: 4 nM
EC50 [8]: 6 nM

SMILES: Cc1cc(Oc2ccccc2)ccc1N(C(=O)CCl)C(C(=O)N1CCN[C@@H](C(C)C)C1)c1ccc(F)cc1 (single isomer, unassigned) [I-7 dia2]
EC50 [1]: 1940 nM
EC50 [2]: 26 nM
EC50 [3]: 1950 nM
EC50 [4]: 98 nM
IC50 [5]: 8 nM
IC50 [6]: 13 nM
IC50 [7]: 5 nM
IC50 [8]: 7 nM

AUC(0-inf) [9]: 1320 ng·h/mL
AUC(0-t) [9]: 1280 ng·h/mL
Cmax [9]: 1470 ng/mL
half-life [9]: 1.38 h
SMILES: Cc1cc(Oc2ccccc2)ccc1N(C(=O)CCl)C(C(=O)N1CCNCC1)c1cccs1.Cl (centres unmarked) [reference compound]

SMILES: CC(C)[C@H]1CN(C(=O)C(c2ccc(F)cc2)N(C(=O)CCl)c2ccc(Oc3ccccc3)cc2)CCN1 (single isomer, unassigned) [I-3 dia2]
EC50 [1]: 504 nM
EC50 [2]: 2 nM
EC50 [3]: 301 nM
EC50 [4]: 9 nM
IC50 [5]: 1 nM
IC50 [6]: 2 nM
IC50 [7]: 1 nM
IC50 [8]: 1 nM

solubility at 24 h [10]: 50 µg/mL (≈ 97.6 µM)
SMILES: CC(C)[C@H]1CN(C(=O)C(c2cccs2)N(C(=O)CCl)c2ccc(Oc3ccccc3)cc2)CCN1 (some centres unmarked)

SMILES: CC(C)[C@H]1CN(C(=O)C(c2cccs2)N(C(=O)CCl)c2cccc(C(F)(F)F)c2)CCN1 (single isomer, unassigned; dia2) [I-50 dia2]
EC50 [1]: 841 nM
EC50 [2]: 8 nM
EC50 [5]: 9 nM
EC50 [6]: 2200 nM
EC50 [7]: 9 nM
EC50 [8]: 11 nM

SMILES: Cc1c(N(C(=O)CCl)C(C(=O)N2C[C@@H](C)N[C@@H](C)C2)c2cccs2)cccc1C(F)(F)F (some centres unmarked) [Example I-38]
IC50 ([1]; Homo sapiens): 2500 nM
IC50 ([2]; Homo sapiens): 189 nM
IC50 [3]: 2500 nM
IC50 [4]: 851 nM

solubility at 24 h [10]: 152 µg/mL
SMILES: C[C@@H]1CN(C(=O)C(c2cccs2)N(C(=O)CCl)c2ccc(Oc3ccccc3)cc2)CCN1.Cl (some centres unmarked) [Example I-59]
IC50 ([1]; Homo sapiens): 956 nM
IC50 ([2]; Homo sapiens): 16 nM
EC50 ([2]; Homo sapiens, HL-60): 16 nM
IC50 [3]: 745 nM
IC50 [4]: 106 nM

SMILES: CC1CN(C(=O)C(c2cccs2)N(C(=O)CCl)c2ccc(Oc3ccccc3)cc2)CC(C)N1C(=O)OC(C)(C)C (centres unmarked) [Example I-32]
IC50 ([1]; Homo sapiens): 175 nM
IC50 ([2]; Homo sapiens): 78 nM
IC50 [3]: 2500 nM
IC50 [4]: 58 nM

AUC(0-inf) [9]: 2060 ng·h/mL
AUC(0-t) [9]: 1680 ng·h/mL
Cmax [9]: 1420 ng/mL
half-life [9]: 2.47 h
SMILES: Cc1cc(Oc2ccccc2)ccc1N(C(=O)CCl)C(C(=O)N1CCN[C@@H](C)C1)c1cccs1.Cl (some centres unmarked)

SMILES: CC(C)[C@H]1CN(C(=O)C(c2ccc(F)cc2)N(C(=O)CCl)c2ccc(Oc3ccccc3)cc2)CCN1 (single isomer, unassigned) [I-3 dia1]
EC50 [1]: 1310 nM
EC50 [2]: 15 nM
EC50 [3]: 927 nM
EC50 [4]: 55 nM
